Legend:
[1] = tested on: inner forearm of each panelist; test: Corneometer analysis of test gel formulations, scaled moisturization performance (SMP); assay type: in vivo; settings: average of 8 panelists, water = 0, glycerol = 1, 22° C., 50% RH; for Corneometer SMP results, 6 hours: 6 hours after single application of gel with 5 wt % active; for Corneometer SMP results, 30 hours: 30 hours after single application of gel with 5 wt % active
Description: To prepare a gel formulation, deionized water was added to a 4 oz. tall jar that was set up for mixing using an overhead mixer and a jiffy blade. The water was then mixed at a speed that created a good vortex that nearly reached the bottom of the jar (e.g., about 700 rpm). To this, Carbopol® 940 (cross-linked polyacrylate polymer available from Lubrizol, Wickliffe, Ohio) was slowly added and mixed for at least 15 minutes until homogeneous. Triethanolamine (TEA) was then added and the mixing speed was adjusted overhead to about 200 rpm and continued mixing for about 10 minutes (e.g., product viscosity increased). To this mixture was added 5 wt % of the moisturizing agent, as either a single agent or a combination of agents, followed by 0.5 wt % Glydant™ Plus™ (a preservative available from Lonza, Basel, Switzerland) and the remaining, balance water. Mixing was continued at 200 rpm for about 15-20 minutes. The mixture was then removed from the mixer and the final pH was measured. Prior to analysis, samples were centrifuged at 2000 rpm for 15 minutes to remove suspended air pockets from the gel formulation.
About 30 μl of each test gel formulation was applied once (e.g., in a single application with no additional re-applications) in a circle with diameter of about 3 cm on the inner forearm of each panelist. Moisture levels were measured using a Corneometer® CM 825 (available from CK Industries) prior to application of the test gel formulations, and at 6 hour and 30 hour intervals after application, at a temperature of 22° C. and relative humidity of 50%.
To facilitate more meaningful comparisons of the corneometer data for the different test formulations, the following adjustment were made to minimize the variations in the response of humectant treatment: the moisturization performance for glycerol was defined to be 1, and that for water to be zero, then the scaled moisturization performance (SMP) for a specific moisturizing active was defined as: […]
RActive, Rwater, and Rglycerol were the actual corneometer readings of the test gel formulations comprising the active moisturizing agent(s), water, and glycerol, respectively, for an individual panelist at a specific time after the initial treatment. The overall SMP of each tested activewas then the average of SMP over 8 panelists. […] The SMP values illustrated in FIG. 4 provide narrower standard deviations over 8 panelists when compared to actual corneometer readings in FIG. 3.
Using this procedure, corneometer measurements were taken at 6 hours and 30 hours for hydroxyethyl urea, glycerol, the DGA acetamide:glycerol (83:17 wt %) of Example 1, the DGA Acetamide of Example 2, a 1:1 mixture of the DGA Acetamide of Example 2 with hydroxyethyl urea, and a 1:1 mixture of the DGA Acetmaide of Example 2 with glycerol. Measurements were taken at six hours and 30 hours on eight subjects, and calculated as scaled moisturization performance values.

[2] = Dynamic Vapor Sorption (DVS) analysis, equilibrium water absorption; assay type: physicochemical; settings: DVS at 50% humidity, 25° C., single moisturizing agents / Ex. 1 and 2 products
Description: Dynamic Vapor Sorption (DVS) technique was used to measure the moisture intake of a specific compound at certain humidity level. DVS Intrinsic instrument manufactured by Surface Measurement Systems UK Ltd. (London, United Kingdom) was used to measure DVS. The following measurement procedure was used to determine the water vapor absorption of a specific composition.
A uniform aqueous solution of a target composition was made at 50% concentration. About 1.2 to 1.6 mg of the prepared aqueous solution was added to DVS instrument at zero tare balance. The temperature was then set at 25° C. A measurement was performed at 90% humidity to ensure that the sample absorbs the highest level of water in order to minimize the mass transfer barrier during the evaporation process. The dynamics of water absorption was determined by the weight change per minute; with water absorption equilibrium defined as the time at which the weight change per minute was less than 0.005% of the sample weight. The equilibrium weight at 0% humidity is the sample weight by itself. Thus, the percentage of equilibrium water absorption at various humidity levels was calculated.
Using the above procedure, DVS was used to evaluate water absorption for compositions comprising DGA Acetamide, other moisturizing agents, and combinations of DGA Acetamide and various additional moisturizing agents. First, DVS values were obtained at 50% humidity for the DGA acetamide products of Examples 1 and 2 above and other selected moisturizing agents.
Then, 1:1 mixtures based on weight were made of each of the DGA Acetamide products of Examples 1 and 2 above with each of the other four moisturizing agents, where the DGA acetamide product of Example 1 is DGA Acetamide:glycerol (83 wt %:17 wt %) and the DGA acetamide product of Example 2 is substantially 100% DGA acetamide. DVS measurements were taken at 50% humidity, using the same amount of total moisturizing agent. It was expected that the DVS values of the mixtures with the other four moisturizing agents would have been the average of the DVS values of each of the moisturizing agents individually, based on the weight percent of each in the mixture.

NC(=O)NCCO [A, Hydroxyethyl urea]
Corneometer SMP results, 6 hours [1]: 0.91
Corneometer SMP results, 30 hours [1]: 1.03
% water absorbed (based on weight of moisturizing agent) [2]: 19.7%

CC(=O)NCCOCCO [C, N-acetyl diglycolamine]
Corneometer SMP results, 6 hours [1]: 0.80
Corneometer SMP results, 30 hours [1]: 0.92
% water absorbed (based on weight of moisturizing agent) [2]: 26.9%

OCC(O)CO [D, Glycerol]
Corneometer SMP results, 6 hours [1]: 1.0
Corneometer SMP results, 30 hours [1]: 1.0
% water absorbed (based on weight of moisturizing agent) [2]: 27.7%

O=C1CCC(C(=O)[O-])N1.[Na+] (centres unmarked) [E, sodium pyrrolidone carboxylate]
% water absorbed (based on weight of moisturizing agent) [2]: 28.7%

CC(O)C(=O)[O-].[Na+] (centres unmarked) [F, Sodium lactate]
% water absorbed (based on weight of moisturizing agent) [2]: 35.1%
